Format in all cases: cell-based
One series has as its system Strept. pyogenes (77 A). The series can be described thus: Agar dilution test (Lorian), antibacterial activity. To be noted: Streptococcus pyogenes. On the procedure: (§1) Die antibakterielle Wirksamkeit der erfindungsgemäßen Verbindungen wurde im Agar-Verdünnungstest nach Lorian (Antibiotics in Laboratory Medicine, Williams & Wilkins, Baltimore/London, 1980) bestimmt. Dabei wurden die Präparate in einer geometrischen Verdünnungsreihe mit dem Faktor 2 in Müller Hinton Agar verdünnt. Eine Petrischale enthielt nur Müller Hinton Agar und diente zur Kontrolle des Bakterienwachstums. Die Petrischalen wurden dann mit einem Denley-Multipoint-Inokulator, welcher 0,6 µl einer 1 : 100 verdünnten 18-Stunden-Kultur der Testbakterien übertrug, mit den entsprechenden Testbakterien beimpft. Nach 16 bis 18 Stunden Inkubation bei 37°C wurden die Petrischalen makroskopisch auf Bakterienwachstum untersucht.
(§2) Die niedrigste Konzentration der erfindungsgemäßen Verbindungen, welche das Bakterienwachstum noch vollständig verhinderte, wurde als MIC (Minimum Inhibitory Concentration) angenommen.
(§3) In Tabelle 3 ist die Wirkung (Angabe des MIC in µg/ml) von verschiedenen erfindungsgemäßen Verbindungen gegen folgende Bakterien aufgeführt: Staph. aureus (SG 511), Staph. aureus (285), Staph. aureus (503), Strept. pyogenes (308 A), Strept. pyogenes (77 A), Strept. faecium (D). Tabelle 3

For the next series, the system named is Strept. pyogenes (308 A). The series is described as above. The settings on record: Streptococcus pyogenes. On the procedure: as §1, §2, §3
Another series deals with Staph. aureus (285). The description is as above. To be noted: Staphylococcus aureus. As to the method:
as §1, §2, §3

Another series has as its system Staph. aureus (503). The description is as above. To be noted: Staphylococcus aureus. On the procedure: as §1, §2, §3
The subject of the next series is Staph. aureus (SG 511). The series is described as above. The settings on record: Staphylococcus aureus. As to the method: as §1, §2, §3
The subject of another series is Strept. faecium (D). The series is described as above. To be noted: Enterococcus faecium. As to the method: as §1, §2, §3
The test system of the next series is HeLa- bzw. Vero-Zellen. The series can be described thus: Maximum tolerated dose (DTM) in cell culture. To be noted: HeLa or Vero cells. On the procedure:
Die Prüfsubstanzen wurden in Zellkulturmedium (Dulbecco's MEM) gelöst und in einer geometrischen Verdünnungsreihe, Faktor 3, in Standard-Mikrotiterplatten in 100 µl Zellkulturmedium vorgelegt. Anschließend erfolgte die Zugabe von 100 µl einer Suspension von HeLa- bzw. Vero-Zellen in Medium mit 5 % fötalem Kälberserum in einer Zelldichte von 2 x 10⁵ Zellen/ml. Die Ansätze wurden mit 50 µl einer Suspension des jeweiligen Test-Virus infiziert, die so eingestellt war, daß die Zellen innerhalb von 72 h einen cytopathogenen Effekt (CPE) zeigten. Die Auswertung erfolgte durch mikroskopische Begutachtung des Zellrasens und photometrische Messung der Neutralrotaufnahme (Farbtest nach Finter). Als MHK wurde die Konzentration des Präparats angenommen (µg/ml), bei der etwa 50 % der Zellen die Infektion überlebten.
In Spalte 9 ist die DTM (Dosis Tolerata Maxima) in µg/ml angegeben. Tabelle 4

The next series relates to Rhinovirus II. To be noted: Rhino. II; HeLa or Vero cells, 72 h CPE; about 50 % of the cells survive.
The subject of another series is Influenza A. To be noted: HeLa or Vero cells, 72 h CPE, about 50 % of the cells survive.
For a further series, the system named is Herpes I. To be noted: HeLa or Vero cells, 72 h CPE, about 50 % of the cells survive.
In a further series the test system is Vaccina. To be noted: HeLa or Vero cells, 72 h CPE, about 50 % of the cells survive.
The next series concerns Herpes II. The settings on record: HeLa or Vero cells, 72 h CPE, about 50 % of the cells survive.
The subject of a further series is Paramyxo. III. To be noted: HeLa or Vero cells, 72 h CPE, about 50 % of the cells survive.
Another series concerns Adeno 5. To be noted: HeLa or Vero cells, 72 h CPE, concentration at which about 50 % of the cells survive the infection.
Where [1] appears, read: Strept. pyogenes (77 A), Müller Hinton Agar, 16 to 18 h at 37°C, read-out: MIC.
The mark [2] stands for this setting: Strept. pyogenes (308 A), Müller Hinton Agar, 16 to 18 h at 37°C, read-out: MIC.
Setting [3] is: Staph. aureus (285), Müller Hinton Agar, 16 to 18 h at 37°C, read-out: MIC.
[4] abbreviates: Staph. aureus (503), Müller Hinton Agar, 16 to 18 h at 37°C, read-out: MIC.
Setting [5] is: Staph. aureus (SG 511), Müller Hinton Agar, 16 to 18 h at 37°C, lowest concentration that completely prevents growth, read-out: MIC.
Setting [6] is: Strept. faecium (D), Müller Hinton Agar, 16 to 18 h at 37°C, read-out: MIC.

The record followed here is patent EP0346760A2, “Derivatives of nigericine, methods for their preparation, compositions containing them and their use” (priority 1988, dated 1989).

A word on the MIC: it is the lowest concentration that inhibits growth of the organism.

Converted amounts (≈) assume the structure as drawn. Read-outs that look alike come from different tables or passages of the source. Where only a bound is given, the exact number is not on record here.

On to `COC1CC(CC2CCC(C)C(C(C)C(=O)O)O2)OC2(OC(C)(C3CCC(C)(C4OC(C5OC(O)(C[N+](=O)[O-])C(C)CC5C)CC4C)O3)CC2C)C1C` (stereo not shown) [Beispiel 5], for which the MIC in the series with Strept. pyogenes (77 A) (setting [1]) is 0.004 µg/mL (≈ 0.00531 µM); in the series with Strept. pyogenes (308 A) (setting [2]) it was 0.004 µg/mL (≈ 0.00531 µM); in the series with Staph. aureus (285) (setting [3]), 0.049 µg/mL (≈ 0.065 µM); in the series on Staph. aureus (503) (setting [4]), 0.025 µg/mL (≈ 0.0332 µM); with Staph. aureus (SG 511) (setting [5]), 0.049 µg/mL (≈ 0.065 µM); with Strept. faecium (D) (setting [6]), 0.098 µg/mL (≈ 0.13 µM).
In the case of `COC1CC(CC2CCC(C)C(C(C)C(=O)O)O2)OC2(OC(C)(C3CCC(C)(C4OC(C5OC(O)(CCl)C(C)CC5C)CC4C)O3)CC2C)C1C` (stereo not shown) [Beispiel 2], the “DTM (Dosis Tolerata Maxima)” value in the series on HeLa- bzw. Vero-Zellen is recorded as 1,48 µg/ml. Besides, the MHK in the series on Rhinovirus II is given as 0,49 µg/ml; in the series on Influenza A, 0,05 µg/ml; in the series with Herpes I, 0,05 µg/ml; with Vaccina it was 0,49 µg/ml; in the series on Herpes II it was < 0,02 µg/ml. Besides, the MIC with Strept. pyogenes (77 A) (setting [1]) turned out to be 0.007 µg/mL (≈ 0.00942 µM); in the series on Strept. pyogenes (308 A) (setting [2]), 0.013 µg/mL (≈ 0.0175 µM); in the series with Staph. aureus (285) (setting [3]), 0.098 µg/mL (≈ 0.132 µM); in the series with Staph. aureus (503) (setting [4]), 0.025 µg/mL (≈ 0.0336 µM); in the series on Staph. aureus (SG 511) (setting [5]) it was 0.098 µg/mL (≈ 0.132 µM); with Strept. faecium (D) (setting [6]) it was 0.391 µg/mL (≈ 0.526 µM).
Take `CCCCOCC1(O)OC(C2CC(C)C(C3(C)CCC(C4(C)CC(C)C5(OC(CC6CCC(C)C(C(C)C(=O)O)O6)CC(OC)C5C)O4)O3)O2)C(C)CC1C` (stereo not shown) [Beispiel 8]: the MHK with Paramyxo. III is reported as 4,44 µg/ml; with Rhinovirus II it was 4,44 µg/ml; in the series on Influenza A it was 0,05 µg/ml; in the series with Herpes I, 4,44 µg/ml; in the series with Vaccina, 4,44 µg/ml; with Adeno 5 it was 0,16 µg/ml. Further, the MHK with Herpes II was 0,16 µg/ml. Besides, in the series on HeLa- bzw. Vero-Zellen, the “DTM (Dosis Tolerata Maxima)” value is on record as 13,3 µg/ml. For the same compound, the MIC came out at 0.098 µg/mL (≈ 0.125 µM) with Strept. pyogenes (77 A) (setting [1]); 0.19 µg/mL (≈ 0.243 µM) in the series on Strept. pyogenes (308 A) (setting [2]); 1.56 µg/mL (≈ 2 µM) with Staph. aureus (285) (setting [3]); 0.78 µg/mL (≈ 0.999 µM) in the series with Staph. aureus (503) (setting [4]); 0.78 µg/mL (≈ 0.999 µM) with Staph. aureus (SG 511) (setting [5]); 3.13 µg/mL (≈ 4.01 µM) in the series on Strept. faecium (D) (setting [6]).
Consider `COC1CC(CC2CCC(C)C(C(C)C(=O)O)O2)OC2(OC(C)(C3CCC(C)(C4OC(C5OC(O)(CSC#N)C(C)CC5C)CC4C)O3)CC2C)C1C` (stereo not shown) [Beispiel 4], for which the MIC against Strept. pyogenes (77 A) turned out to be 0.098 µg/mL (≈ 0.128 µM); in the series with Strept. pyogenes (308 A), 0.098 µg/mL (≈ 0.128 µM); in the series with Staph. aureus (285), 0.78 µg/mL (≈ 1.02 µM); with Staph. aureus (503), 0.78 µg/mL (≈ 1.02 µM); against Strept. faecium (D), 0.78 µg/mL (≈ 1.02 µM).
Regarding `COC1CC(CC2CCC(C)C(C(C)C(=O)O)O2)OC2(OC(C)(C3CCC(C)(C4OC(C5OC(O)(CO[Si](c6ccccc6)(c6ccccc6)C(C)(C)C)C(C)CC5C)CC4C)O3)CC2C)C1C` (stereo not shown) [Beispiel 9], the MHK was 4,44 µg/ml in the series with Paramyxo. III; 4,44 µg/ml with Rhinovirus II; 0,05 µg/ml in the series on Influenza A; 0,05 µg/ml in the series on Herpes I; 4,44 µg/ml with Vaccina; 0,05 µg/ml with Adeno 5. For the same compound, the MHK in the series with Herpes II is reported as 0,05 µg/ml. Further, the “DTM (Dosis Tolerata Maxima)” value with HeLa- bzw. Vero-Zellen is 4,44 µg/ml. In addition, the MIC amounted to 0.025 µg/mL (≈ 0.026 µM) with Strept. pyogenes (77 A); 0.025 µg/mL (≈ 0.026 µM) with Strept. pyogenes (308 A); 0.78 µg/mL (≈ 0.81 µM) in the series with Staph. aureus (285); 0.78 µg/mL (≈ 0.81 µM) in the series with Staph. aureus (503); 0.78 µg/mL (≈ 0.81 µM) in the series with Staph. aureus (SG 511); 0.7 µg/mL (≈ 0.727 µM) with Strept. faecium (D).
With `COCC1(O)OC(C2CC(C)C(C3(C)CCC(C4(C)CC(C)C5(OC(CC6CCC(C)C(C(C)C(=O)O)O6)CC(OC)C5C)O4)O3)O2)C(C)CC1C` (stereo not shown) [Beispiel 7], the “DTM (Dosis Tolerata Maxima)” value in the series on HeLa- bzw. Vero-Zellen is on record as 4,44 µg/ml. The MHK with Rhinovirus II was 1,48 µg/ml; in the series on Influenza A, 0,05 µg/ml; in the series on Herpes I, 0,05 µg/ml; in the series on Vaccina, 0,49 µg/ml; with Adeno 5 it was 0,16 µg/ml; with Herpes II, 0,05 µg/ml. In addition, the MIC with Strept. pyogenes (77 A) (setting [1]) was determined as 0.19 µg/mL (≈ 0.257 µM); with Strept. pyogenes (308 A) (setting [2]), 0.39 µg/mL (≈ 0.528 µM); with Staph. aureus (285) (setting [3]), 0.78 µg/mL (≈ 1.06 µM); in the series with Staph. aureus (503) (setting [4]), 0.39 µg/mL (≈ 0.528 µM); in the series on Staph. aureus (SG 511) (setting [5]), 0.78 µg/mL (≈ 1.06 µM); in the series with Strept. faecium (D) (setting [6]) it was 3.13 µg/mL (≈ 4.24 µM).
For the compound `COC1CC(CC2CCC(C)C(C(C)C(=O)O)O2)OC2(OC(C)(C3CCC(C)(C4OC(C5OC(O)(CBr)C(C)CC5C)CC4C)O3)CC2C)C1C` (stereo not shown) [Beispiel 3], in the series on HeLa- bzw. Vero-Zellen, the “DTM (Dosis Tolerata Maxima)” value is 0,89 µg/ml. For the same compound, the MHK in the series on Rhinovirus II was 0,3 µg/ml; with Influenza A, 0,03 µg/ml; with Herpes I, 0,01 µg/ml; with Adeno 5 it was 0,01 µg/ml; in the series on Herpes II, 0,3 µg/ml. Moreover, the MIC with Strept. pyogenes (77 A) (setting [1]) was under 0.002 µg/mL; with Strept. pyogenes (308 A) (setting [2]) it was under 0.002 µg/mL; with Staph. aureus (285) (setting [3]), 0.013 µg/mL (≈ 0.0165 µM); with Staph. aureus (503) (setting [4]), 0.007 µg/mL (≈ 0.00888 µM); in the series on Staph. aureus (SG 511) (setting [5]) it was 0.013 µg/mL (≈ 0.0165 µM); in the series with Strept. faecium (D) (setting [6]) it was 0.098 µg/mL (≈ 0.124 µM).
